Results from paper PMC4342408 (Structure(London, England:1993), 2014).
Blank lines part the entries; values can stand above or below the molecule they belong to.

Legend:
[1] = biological target: T1, HYPE (Homo sapiens, UniProt Q9BVA6, E234G); assay: differential scanning fluorimetry (thermal shift), […] ligand; format: binding
T1 construct: gene FICD; 172–434
T1 sequence (Q9BVA6 172-434 E234G): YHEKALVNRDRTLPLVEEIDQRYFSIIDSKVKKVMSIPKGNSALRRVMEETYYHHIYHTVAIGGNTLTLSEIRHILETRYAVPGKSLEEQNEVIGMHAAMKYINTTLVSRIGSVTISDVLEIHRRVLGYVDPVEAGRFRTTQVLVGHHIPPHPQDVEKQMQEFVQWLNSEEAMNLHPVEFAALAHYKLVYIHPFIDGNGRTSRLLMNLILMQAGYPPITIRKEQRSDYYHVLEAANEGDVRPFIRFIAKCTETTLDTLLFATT

[2] = biological target: T2, HYPE (Homo sapiens, UniProt Q9BVA6, E234G); assay: crystal structure ([…] Å); thermal shift; format: binding; design: gene FICD; TPR-motifs, linker and FIC domain (lacking first 102 residues)
T2 sequence (Q9BVA6 103-445 E234G): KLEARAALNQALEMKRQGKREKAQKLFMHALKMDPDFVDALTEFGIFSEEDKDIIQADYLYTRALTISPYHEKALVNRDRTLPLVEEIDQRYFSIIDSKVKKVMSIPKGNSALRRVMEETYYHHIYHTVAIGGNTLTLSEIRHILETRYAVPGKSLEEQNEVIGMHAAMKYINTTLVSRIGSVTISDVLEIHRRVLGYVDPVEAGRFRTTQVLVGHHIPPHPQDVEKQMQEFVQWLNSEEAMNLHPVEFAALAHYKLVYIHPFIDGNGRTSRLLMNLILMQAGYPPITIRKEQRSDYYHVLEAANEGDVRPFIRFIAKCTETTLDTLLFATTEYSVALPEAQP

[3] = biological target: T3, HYPE (Homo sapiens, UniProt Q9BVA6); assay: ITC; crystal structure; thermal shift; format: binding
T3 construct: gene FICD; residues 103-445
T3 sequence (Q9BVA6 103-445): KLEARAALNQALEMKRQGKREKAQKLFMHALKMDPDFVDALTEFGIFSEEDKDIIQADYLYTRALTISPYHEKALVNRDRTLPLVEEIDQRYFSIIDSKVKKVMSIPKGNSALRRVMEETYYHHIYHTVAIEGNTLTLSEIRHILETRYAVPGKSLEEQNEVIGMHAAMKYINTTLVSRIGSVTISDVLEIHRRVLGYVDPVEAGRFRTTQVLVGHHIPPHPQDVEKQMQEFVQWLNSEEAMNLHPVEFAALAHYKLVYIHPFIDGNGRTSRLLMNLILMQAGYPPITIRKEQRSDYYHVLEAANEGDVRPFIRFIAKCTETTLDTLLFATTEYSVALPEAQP

[4] = biological target: T2, HYPE; assay: ITC; crystal structure; thermal shift; format: binding; design: gene FICD; residues 103-445
[5] = biological target: wild-type HYPE construct lacking the first 102 amino-acid residues (construct used for crystallization) (human) (UniProt Q9BVA6); assay: SAXS; small angle X-ray scattering of soluble HYPE constructs in solution; methods in Supplemental Experimental Procedures
[6] = biological target: the molecule itself; assay: SEC; analytical gel filtration of purified HYPE constructs

Molecule: O=c1ccn([C@@H]2O[C@H](CO[P@@](=O)(O)O[P@@](=O)(O)OP(=O)(O)O)[C@@H](O)[C@H]2O)c(=O)[nH]1 (stereo in doubt) [uridine triphosphate]
differential scanning fluorimetry (thermal shift), 200 μM ligand [1]: a less strong binding of cytidine triphosphate and uridine triphosphate (Figure 6A)

Molecule: Nc1ncnc2c1ncn2C1OC(COP(=O)(O)OP(=O)(O)OP(=O)(O)O)C(O)C1O (centres unmarked) [ATP]
crystal structure (2.7 Å); thermal shift [2]: we have also obtained structures with the ATP cofactor bound to an E234G variant

Kd [3]: 1500 nM
Kd [4]: 160 nM
Molecule: Nc1ncnc2c1ncn2[C@@H]1O[C@H](COP(=O)(O)OP(=O)(O)O)[C@@H](O)[C@H]1O [ADP]

Molecule: Nc1nc2c(ncn2[C@@H]2O[C@H](COP(=O)(O)OP(=O)(O)OP(=O)(O)O)[C@@H](O)[C@H]2O)c(=O)[nH]1 [guanosine-5'-triphosphate]
differential scanning fluorimetry (thermal shift), 200 μM ligand [1]: showed similar binding of ATP and guanosine-5'-triphosphate

stoichiometry N [5]: 2
Molecule: wild-type HYPE construct lacking the first 102 amino-acid residues (construct used for crystallization) (from UniProt Q9BVA6 103-458) (domain or fragment)

B1: HYPE (172–445), containing the linker helix and FIC domain (domain or fragment, human, UniProt Q9BVA6 172-445, looked up)
chain: YHEKALVNRDRTLPLVEEIDQRYFSIIDSKVKKVMSIPKGNSALRRVMEETYYHHIYHTVAIEGNTLTLSEIRHILETRYAVPGKSLEEQNEVIGMHAAMKYINTTLVSRIGSVTISDVLEIHRRVLGYVDPVEAGRFRTTQVLVGHHIPPHPQDVEKQMQEFVQWLNSEEAMNLHPVEFAALAHYKLVYIHPFIDGNGRTSRLLMNLILMQAGYPPITIRKEQRSDYYHVLEAANEGDVRPFIRFIAKCTETTLDTLLFATTEYSVALPEAQP
notes: human HYPE (FICD), residues 172-445: linker helix and FIC domain; cloned into pOPINS; also called ΔTPR; HYPE lacking TPR-motifs; source: E. coli C41(DE3), purified (Ni2+ chelating, Q-sepharose, gel filtration)
binding result [6]: binds

B2: HYPE variant (103–434), containing TPR-motifs, linker, and FIC domain (domain or fragment, human, UniProt Q9BVA6 103-434, looked up)
chain: KLEARAALNQALEMKRQGKREKAQKLFMHALKMDPDFVDALTEFGIFSEEDKDIIQADYLYTRALTISPYHEKALVNRDRTLPLVEEIDQRYFSIIDSKVKKVMSIPKGNSALRRVMEETYYHHIYHTVAIEGNTLTLSEIRHILETRYAVPGKSLEEQNEVIGMHAAMKYINTTLVSRIGSVTISDVLEIHRRVLGYVDPVEAGRFRTTQVLVGHHIPPHPQDVEKQMQEFVQWLNSEEAMNLHPVEFAALAHYKLVYIHPFIDGNGRTSRLLMNLILMQAGYPPITIRKEQRSDYYHVLEAANEGDVRPFIRFIAKCTETTLDTLLFATT
notes: human HYPE (FICD), residues 103-434: TPR-motifs (105-135, 140-170), linker (170-215), FIC domain (215-432); cloned into pOPINS; wild type; also called HYPE (103-434); source: E. coli C41(DE3), purified (Ni2+ chelating, Q-sepharose, gel filtration)
stoichiometry N [6]: 2
